Source: ChEMBL document CHEMBL1221248, “Synthesis and SAR of (piperazin-1-yl-phenyl)-arylsulfonamides: a novel series of atypical antipsychotic agents” (Bioorg Med Chem Lett, 2010)
The source made the active and inactive calls. No cut-off for these calls is given here.

Columns and labels:
[1] = molecular target: T1, 5-hydroxytryptamine receptor 2C (Homo sapiens, UniProt P28335); test: Displacement of [3H]mesulergine from human 5HT2C expressed in CHOKI cells; format: cell-based
T1 sequence (P28335 whole entry): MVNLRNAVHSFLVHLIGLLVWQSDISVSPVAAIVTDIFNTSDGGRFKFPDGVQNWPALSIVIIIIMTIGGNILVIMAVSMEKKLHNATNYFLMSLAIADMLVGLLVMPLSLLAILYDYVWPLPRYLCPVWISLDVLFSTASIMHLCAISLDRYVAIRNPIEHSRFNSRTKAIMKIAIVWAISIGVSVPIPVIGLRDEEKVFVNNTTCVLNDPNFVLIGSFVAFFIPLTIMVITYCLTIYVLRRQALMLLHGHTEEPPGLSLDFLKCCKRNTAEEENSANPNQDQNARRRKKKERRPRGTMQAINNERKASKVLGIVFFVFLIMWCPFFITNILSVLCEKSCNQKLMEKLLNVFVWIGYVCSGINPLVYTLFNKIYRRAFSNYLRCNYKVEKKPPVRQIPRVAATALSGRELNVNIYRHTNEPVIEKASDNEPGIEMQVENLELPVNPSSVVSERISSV

[2] = molecular target: T2, 5-hydroxytryptamine receptor 6 (Homo sapiens, UniProt P50406); test: Displacement of [3H]LSD from human 5HT6 receptor expressed in HEK293 cells; format: cell-based
Target sequence in this assay (P50406 whole entry): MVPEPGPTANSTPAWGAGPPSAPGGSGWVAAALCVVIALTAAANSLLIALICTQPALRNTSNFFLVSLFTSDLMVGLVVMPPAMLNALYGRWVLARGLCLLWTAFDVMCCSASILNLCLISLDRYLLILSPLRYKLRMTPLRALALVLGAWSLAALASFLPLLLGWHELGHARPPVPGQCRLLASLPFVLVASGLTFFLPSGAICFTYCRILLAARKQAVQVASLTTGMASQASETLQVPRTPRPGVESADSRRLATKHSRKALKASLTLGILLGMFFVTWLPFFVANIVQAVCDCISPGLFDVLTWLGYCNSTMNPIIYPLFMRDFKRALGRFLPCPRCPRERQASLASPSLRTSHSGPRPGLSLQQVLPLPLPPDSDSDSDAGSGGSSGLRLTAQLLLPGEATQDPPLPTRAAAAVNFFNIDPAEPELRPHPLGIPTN

[3] = molecular target: T3, 5-hydroxytryptamine receptor 1A (Homo sapiens, UniProt P08908); test: Displacement of [3H]8-OH-DPAT from human 5HT1A expressed in CHOKI cells; format: cell-based
T3 sequence (P08908 whole entry): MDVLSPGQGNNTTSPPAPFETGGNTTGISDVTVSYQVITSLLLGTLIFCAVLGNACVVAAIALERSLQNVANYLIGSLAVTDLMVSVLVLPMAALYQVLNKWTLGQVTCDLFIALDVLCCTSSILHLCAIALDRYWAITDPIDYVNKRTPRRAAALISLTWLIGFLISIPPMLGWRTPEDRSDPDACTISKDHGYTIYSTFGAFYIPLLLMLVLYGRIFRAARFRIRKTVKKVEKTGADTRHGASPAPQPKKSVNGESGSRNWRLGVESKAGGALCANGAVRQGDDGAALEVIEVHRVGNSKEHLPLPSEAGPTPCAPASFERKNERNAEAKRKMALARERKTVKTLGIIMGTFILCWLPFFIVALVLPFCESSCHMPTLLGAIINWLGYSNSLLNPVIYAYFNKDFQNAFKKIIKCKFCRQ

[4] = molecular target: 5-hydroxytryptamine receptor 2A (Homo sapiens, UniProt P28223); test: Displacement of [3H]ketanserin from human 5HT2A expressed in CHOKI cells; format: cell-based
[5] = molecular target: 5-hydroxytryptamine receptor 7 (Homo sapiens, UniProt P34969); test: Displacement of [3H]LSD from human 5HT7 expressed in CHOKI cells; format: cell-based
D(2) dopamine receptor = D(2) dopamine receptor (Homo sapiens, UniProt P14416); test: Displacement of [3H]spiperone from human dopamine D2 expressed in CHOKI cells; format: cell-based
D(3) dopamine receptor = D(3) dopamine receptor (Homo sapiens, UniProt P35462); test: Displacement of [3H]spiperone from human dopamine D3 receptor expressed in CHOKI cells; format: cell-based
D(4) dopamine receptor = molecular target: T4, D(4) dopamine receptor (Homo sapiens, UniProt P21917); test: Displacement of [3H]spiperone from human dopamine D4 receptor expressed in CHOKI cells; format: cell-based
T4 sequence (P21917 whole entry): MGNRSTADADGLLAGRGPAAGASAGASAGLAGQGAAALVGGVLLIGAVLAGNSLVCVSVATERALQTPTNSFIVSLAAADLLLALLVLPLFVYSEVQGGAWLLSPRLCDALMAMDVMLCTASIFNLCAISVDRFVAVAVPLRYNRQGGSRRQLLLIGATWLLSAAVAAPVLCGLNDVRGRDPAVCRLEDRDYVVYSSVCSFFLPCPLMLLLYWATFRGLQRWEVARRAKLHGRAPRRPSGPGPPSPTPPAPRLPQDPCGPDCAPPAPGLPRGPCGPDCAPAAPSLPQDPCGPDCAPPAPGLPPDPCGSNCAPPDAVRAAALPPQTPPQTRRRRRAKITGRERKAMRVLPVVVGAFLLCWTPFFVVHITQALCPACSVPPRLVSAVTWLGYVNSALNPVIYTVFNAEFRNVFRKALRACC

Homo sapiens [6] = organism: Homo sapiens; test: Selectivity ratio of IC50 for human 5HT1A to IC50 for human 5HT2C
[7] = molecular target: Serotonin 2 receptors; 5-HT2a & 5-HT2c (Homo sapiens) (UniProt P28223+P28335); test: Selectivity ratio of IC50 for human 5HT2A to IC50 for human 5HT2C
Homo sapiens [8] = organism: Homo sapiens; test: Selectivity ratio of IC50 for human 5HT7 to IC50 for human 5HT2C
Homo sapiens [9] = organism: Homo sapiens; test: Selectivity ratio of IC50 for human dopamine D2 to IC50 for human 5HT2C
Homo sapiens [10] = organism: Homo sapiens; test: Selectivity ratio of IC50 for human dopamine D3 to IC50 for human 5HT2C
Homo sapiens [11] = organism: Homo sapiens; test: Selectivity ratio of IC50 for human dopamine D4 to IC50 for human 5HT2C
Homo sapiens [12] = organism: Homo sapiens; test: Selectivity ratio of IC50 for human 5HT1A to IC50 for human 5HT6 receptor
Homo sapiens [13] = organism: Homo sapiens; test: Selectivity ratio of IC50 for human 5HT2A to IC50 for human 5HT6 receptor
Homo sapiens [14] = organism: Homo sapiens; test: Selectivity ratio of IC50 for human 5HT7 to IC50 for human 5HT6 receptor
Homo sapiens [15] = organism: Homo sapiens; test: Selectivity ratio of IC50 for human dopamine D2 to IC50 for human 5HT6 receptor
Homo sapiens [16] = organism: Homo sapiens; test: Selectivity ratio of IC50 for human dopamine D3 to IC50 for human 5HT6 receptor
Homo sapiens [17] = organism: Homo sapiens; test: Selectivity ratio of IC50 for human dopamine D4 to IC50 for human 5HT6 receptor
[18] = molecular target: T2, 5-hydroxytryptamine receptor 6; test: Antagonist activity at human 5HT6 receptor expressed in human HeLa cells assessed as inhibition of 5-HT-stimulated cAMP production; format: functional, cell-based
Target sequence in this assay (P50406 whole entry): as the sequence (P50406 whole entry) above

[19] = molecular target: T5, 5-hydroxytryptamine receptor 2C (Homo sapiens) (UniProt P28335); test: Antagonist activity at human 5HT2C expressed in CHO cells assessed as inhibition of 5-HT-stimulated [35S]GTPgamma binding; format: functional, cell-based
T5 sequence (whole entry): T1 sequence (P28335 whole entry)

[20] = molecular target: T2, 5-hydroxytryptamine receptor 6; test: Antagonist activity at human 5HT6 expressed in human HeLa cells assessed as inhibition of 5-HT-stimulated cAMP accumulation
Target sequence in this assay (P50406 whole entry, looked up): as the sequence (P50406 whole entry) above

Chain of D(2) dopamine receptor (P14416 whole entry): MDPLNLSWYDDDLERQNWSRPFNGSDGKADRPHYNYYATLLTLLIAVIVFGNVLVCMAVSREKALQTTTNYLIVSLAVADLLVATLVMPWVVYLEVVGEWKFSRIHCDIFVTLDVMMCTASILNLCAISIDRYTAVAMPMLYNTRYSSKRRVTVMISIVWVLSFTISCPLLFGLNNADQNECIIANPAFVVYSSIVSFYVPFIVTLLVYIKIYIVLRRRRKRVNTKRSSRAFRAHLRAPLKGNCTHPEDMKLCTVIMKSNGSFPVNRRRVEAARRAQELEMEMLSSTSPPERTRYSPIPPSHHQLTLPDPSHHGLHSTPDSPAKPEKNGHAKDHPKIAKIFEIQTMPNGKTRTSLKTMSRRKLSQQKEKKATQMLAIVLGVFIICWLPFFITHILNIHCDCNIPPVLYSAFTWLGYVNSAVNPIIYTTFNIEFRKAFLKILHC
Chain of D(3) dopamine receptor (P35462 whole entry): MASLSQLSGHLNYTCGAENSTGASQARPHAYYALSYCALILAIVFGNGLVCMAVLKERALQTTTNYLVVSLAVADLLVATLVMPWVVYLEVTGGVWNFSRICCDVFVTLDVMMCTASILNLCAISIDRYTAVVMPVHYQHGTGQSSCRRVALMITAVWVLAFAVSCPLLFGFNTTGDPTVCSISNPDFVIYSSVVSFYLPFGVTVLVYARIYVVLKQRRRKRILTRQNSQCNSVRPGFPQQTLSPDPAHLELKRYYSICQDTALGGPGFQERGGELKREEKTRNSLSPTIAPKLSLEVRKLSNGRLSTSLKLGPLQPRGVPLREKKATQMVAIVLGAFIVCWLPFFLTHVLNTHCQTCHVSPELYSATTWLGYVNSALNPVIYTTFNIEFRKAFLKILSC
Chain of 5-hydroxytryptamine receptor 2A (P28223 whole entry): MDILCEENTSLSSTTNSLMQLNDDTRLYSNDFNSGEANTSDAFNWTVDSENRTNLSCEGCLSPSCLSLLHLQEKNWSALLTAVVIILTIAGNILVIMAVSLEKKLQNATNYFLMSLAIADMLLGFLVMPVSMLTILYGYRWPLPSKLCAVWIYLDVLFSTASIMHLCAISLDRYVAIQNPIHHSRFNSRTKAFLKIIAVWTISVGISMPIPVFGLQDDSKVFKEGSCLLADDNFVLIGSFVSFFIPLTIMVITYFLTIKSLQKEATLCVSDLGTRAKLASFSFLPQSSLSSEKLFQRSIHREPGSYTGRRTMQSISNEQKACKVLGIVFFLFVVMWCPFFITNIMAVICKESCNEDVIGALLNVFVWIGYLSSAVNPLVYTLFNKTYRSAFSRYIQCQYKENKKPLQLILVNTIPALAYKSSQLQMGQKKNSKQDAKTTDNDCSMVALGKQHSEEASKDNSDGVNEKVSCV
Chain of 5-hydroxytryptamine receptor 7 (P34969 whole entry): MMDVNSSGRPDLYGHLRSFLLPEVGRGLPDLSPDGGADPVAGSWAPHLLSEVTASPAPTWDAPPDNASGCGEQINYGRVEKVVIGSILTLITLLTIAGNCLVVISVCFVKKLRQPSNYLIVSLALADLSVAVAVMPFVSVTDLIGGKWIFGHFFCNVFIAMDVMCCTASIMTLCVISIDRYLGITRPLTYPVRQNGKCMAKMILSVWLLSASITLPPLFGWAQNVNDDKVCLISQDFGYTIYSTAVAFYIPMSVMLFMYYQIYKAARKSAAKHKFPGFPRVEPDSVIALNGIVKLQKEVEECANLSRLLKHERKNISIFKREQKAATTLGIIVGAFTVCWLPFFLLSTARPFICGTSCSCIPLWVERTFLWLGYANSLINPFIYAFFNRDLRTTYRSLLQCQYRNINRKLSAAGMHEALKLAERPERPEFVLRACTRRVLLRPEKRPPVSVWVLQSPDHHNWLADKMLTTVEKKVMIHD
Chain of Serotonin 2 receptors; 5-HT2a & 5-HT2c (Homo sapiens) (P28223 whole entry, looked up, one chain of several): as the sequence (P28223 whole entry) above

IC50 [1] [nM]	IC50 [2] [nM]	IC50 [3] [nM]	IC50 [4] [nM]	IC50 [5] [nM]	IC50 (D(2) dopamine receptor) [µM]	IC50 (D(3) dopamine receptor) [nM]	IC50 (D(4) dopamine receptor) [µM]	Compound	other results
1720	27							CC(C)N(c1ccc(N2CCN(C)CC2)cc1)S(=O)(=O)c1ccc2ccccc2c1	
100	16	298	122	2870	> 10	1200	> 10	CC(C)N(c1cccc(N2CCN(C)CC2)c1)S(=O)(=O)c1cccc2ccccc12	
6	6	672	88	3040	> 10	1430	> 10	CN1CCN(c2cccc(N(CC3CC3)S(=O)(=O)c3ccc4ccccc4c3)c2)CC1	
21	644	3400	172	1010	> 10	2890	> 10	CC(C)N(c1cccc(N2CCN(C)CC2)c1)S(=O)(=O)c1ccccc1	
159								CCC(CC)N(c1cccc(N2CCN(C)CC2)c1)S(=O)(=O)c1ccc2ccccc2c1	
7700								CC(C)N(C(=O)c1ccc(Cl)cc1)c1cccc(N2CCN(C)CC2)c1	
97								CC(C)N(C(=O)c1cccc2ccccc12)c1cccc(N2CCN(C)CC2)c1	
11								CN1CCN(c2cccc(N(CC3CCCC3)S(=O)(=O)c3ccc4ccccc4c3)c2)CC1	
16	3	485	218	2060	> 10	1170	> 10	CCN(c1cccc(N2CCN(C)CC2)c1)S(=O)(=O)c1ccc2ccccc2c1	
5150	13	57	1620	1580	> 10	2100	> 10	CN1CCN(c2cccc(NS(=O)(=O)c3ccc4ccccc4c3)c2)CC1	
36	7	95	1420	4430	> 10	2420	> 10	CN1CCN(c2cccc(N(C)S(=O)(=O)c3ccc4ccccc4c3)c2)CC1	
420								CC(C)N(C(=O)c1ccc2ccccc2c1)c1cccc(N2CCN(C)CC2)c1	
4640	2190							CC(C)N(c1ccccc1N1CCN(C)CC1)S(=O)(=O)c1ccc2ccccc2c1	
7	4	3760	389	3860	> 10	2510	> 10	CCCN(c1cccc(N2CCN(C)CC2)c1)S(=O)(=O)c1ccc2ccccc2c1	Ratio IC50 (Homo sapiens [6]): > 25; Ratio IC50 [7]: > 25; Ratio IC50 (Homo sapiens [8]): > 25; Ratio IC50 (Homo sapiens [9]): > 25; Ratio IC50 (Homo sapiens [10]): > 25; Ratio IC50 (Homo sapiens [11]): > 25; Ratio IC50 (Homo sapiens [12]): > 25; Ratio IC50 (Homo sapiens [13]): > 25; Ratio IC50 (Homo sapiens [14]): > 25; Ratio IC50 (Homo sapiens [15]): > 25; Ratio IC50 (Homo sapiens [16]): > 25; Ratio IC50 (Homo sapiens [17]): > 25
168								CCC(C)N(c1cccc(N2CCN(C)CC2)c1)S(=O)(=O)c1ccc2ccccc2c1 (centres undefined)	

Continued, compound first:

Compound	IC50 [1] [nM]	IC50 [2] [nM]	IC50 [3] [nM]	IC50 [4] [nM]	IC50 [5] [nM]	IC50 (D(2) dopamine receptor) [µM]	IC50 (D(3) dopamine receptor) [nM]	IC50 (D(4) dopamine receptor) [µM]	other results
CC(C)N(c1cccc(N2CCN(C)CC2)c1)S(=O)(=O)c1ccc([N+](=O)[O-])cc1	462								
CC(C)N(c1cccc(I)c1)S(=O)(=O)c1ccc2ccccc2c1	467	1180							
CC(C)N(c1cccc(N2CCN(C)CC2)c1)S(=O)(=O)c1ccc2ccccc2c1	4	3	> 1000	118		> 10	248	> 1	Ratio IC50 (Homo sapiens [6]): > 25; Ratio IC50 [7]: > 25; Ratio IC50 (Homo sapiens [8]): > 25; Ratio IC50 (Homo sapiens [9]): > 25; Ratio IC50 (Homo sapiens [10]): > 25; Ratio IC50 (Homo sapiens [11]): > 25; Ratio IC50 (Homo sapiens [12]): > 25; Ratio IC50 (Homo sapiens [13]): > 25; Ratio IC50 (Homo sapiens [14]): > 25; Ratio IC50 (Homo sapiens [15]): > 25; Ratio IC50 (Homo sapiens [16]): > 25; Ratio IC50 (Homo sapiens [17]): > 25; inhibition [18]: Active; inhibition [19]: Dose-dependent effect; inhibition [20]: Active
CC(C)N(C(=O)c1ccccc1)c1cccc(N2CCN(C)CC2)c1	4160								
CC(C)N(Cc1ccccc1)c1cccc(N2CCN(C)CC2)c1	> 10000								
CN1CCN(c2cccc(N(Cc3ccccc3)S(=O)(=O)c3ccc4ccccc4c3)c2)CC1	32	3	280	50	2040	> 10	943	> 10	
CC(C)N(c1cccc(N2CCN(C)CC2)c1)S(=O)(=O)c1ccc(Cl)cc1	243								
CN1CCN(c2cccc(N(Cc3cccnc3)S(=O)(=O)c3ccc4ccccc4c3)c2)CC1	34								
Cc1ccc(S(=O)(=O)N(c2cccc(N3CCN(C)CC3)c2)C(C)C)cc1	106								
CC(C)N(C(=O)Nc1ccccc1)c1cccc(N2CCN(C)CC2)c1	> 10000								
CC(C)N(c1ccc(Oc2cccnc2)nc1)S(=O)(=O)c1ccc2ccccc2c1	> 10000	422							
